Experimental data: article PMC7753040, “Discovery of a Potent RIPK3 Inhibitor for the Amelioration of Necroptosis-Associated Inflammatory Injury” (Frontiers in Cell and Developmental Biology, 2020)

Test system: HeLa-MLKL (1–190) cells
Experiment: MLKL polymerization-induced necroptosis in HeLa-MLKL (1-190) cells (AP20187)
Format: cell-based, human
Conditions: doxycycline 1 μg/ml 24 h, 2 h pretreatment, AP20187 60 nM 24 h
From the text: Human colon cancer HT-29 and mouse fibrosarcoma L929 cells were from ATCC. Mouse embryonic fibroblasts (MEF), HT-29 cells stably expressing RIPK3-shRNA and shRNA resistant scramble Flag-tagged RIPK3 (W46), and NIH3T3 cell line stably expressing RIPK3 fused to mutant FK506-binding protein (NIH3T3-RIPK3) were kindly provided by Dr. Xiaodong Wang [National Institute of Biological Sciences (NIBS), Beijing]. HeLa-MLKL (1-190) cell line was a gift from Dr. Zhigao Wang (University of Texas Southwestern Medical Center at Dallas). These cells were cultured in Dulbecco’s modified Eagle’s medium (Hyclone) supplemeted with 10% fetal bovine serum (Invitrogen) and 2 mM L-glutamine (Invitrogen) in a humidified incubator at 37°C and 5% CO2. […]
Cells were seeded in 96-well plates and then treated as indicated. The cell viability was determined by assessment of ATP levels using the CellTiter-Glo Luminescent Cell Viability Assay kit following the manufacture’s instructions (Promega). Luminescence was calculated with SpectraMax i3x (Molecular Devices).
In vitro kinase activity assays using recombinant RIPK3 and RIPK1 were performed as described in the section “Materials and Methods.” Data represent mean value ± standard deviation. […] Cell viability was determined by measuring ATP levels. […] Cell viability was determined by measuring ATP levels. […]

Q: Which “polymerized MLKL-induced necroptosis” value does the source give for `COc1nccnc1NS(=O)(=O)c1ccc(NC(=O)/C=C/c2ccc([N+](=O)[O-])s2)cc1` [necrosulfonamide, reference compound] here?
A: blocked
